In patent publication US9163240B2, “SR-BI mutation as a predictor of low progesterone levels and poor fetal viability during pregnancy” (The Johns Hopkins University, priority 2009, dated 2015):

Experiments:
HGL5 cells = experiment: Progesterone secretion in HGL5 granulosa cells (RIA); type: cell-based, human; conditions: for rescue of impaired progesterone secretion in SR-BI KD cells: SR-BI KD cells incubated with the agent
female knockout mice = conditions: probucol added in the chow diet; cited from earlier work

SMILES | rescue of impaired progesterone secretion in SR-BI KD cells (HGL5 cells) | further results
CC(C)CCC(O)[C@@H](C)[C@H]1CC[C@H]2[C@@H]3CC=C4C[C@@H](O)CC[C@]4(C)[C@H]3CC[C@]12C (stereo partly shown) [22-OH cholesterol, 22-hydroxycholesterol] | did not overcome this impairment | 
C=C[C@@]1(C)CC(=O)[C@]2(O)[C@@]3(C)[C@@H](O)CCC(C)(C)[C@@H]3[C@H](O)[C@H](OC(C)=O)[C@@]2(C)O1 [Fo, Forskolin] |  | progesterone secretion higher as compared with DMSO (HGL5 cells; scrambled cells, 24 h, Fo 10 μM, serum 10%, HDL or LDL 50 μg protein/ml, p<0.001): > 2 fold
CCCC(=O)Nc1ncnc2c1ncn2[C@@H]1O[C@@H]2COP(=O)(O)O[C@H]2[C@H]1OC(=O)CCC [dibutryl cAMP] | did not overcome the defect | 
CC(C)(Sc1cc(C(C)(C)C)c(O)c(C(C)(C)C)c1)Sc1cc(C(C)(C)C)c(O)c(C(C)(C)C)c1 [probucol] |  | fertility of SR-BI knockout female mice (female knockout mice): restored
